Results: US9908877B2, “Imidazo[1,5-a]pyridinium ion fluorophores, and methods of making and using the same” (Indiana University Research and Technology Corporation, priority 2013, dated 2018)
Values belong to the compound of their own block, whether it stands above or below them.

How the values were obtained:
Format in all cases: physicochemical
[1] = Ultraviolet-visible light spectrum (maximum absorbance wavelength)
Method: Method for Obtaining an Ultraviolet-Visible Light Spectrum
Ultraviolet-visible (UV-Vis) Light spectra are obtained and recorded on an Agilent 8453 spectrophotometer using ChemStation software (Agilent Technologies, Inc., Santa Clara, Calif.).
(§1) The compounds were analyzed at 298° K according to the Method for Obtaining Ultraviolet-Visible Light Spectrum (30 μM acetonitrile) to obtain the maximum absorbance wavelength (λabs,max), Method for Obtaining Fluorescence Emission Spectrum (30 μM acetonitrile) to obtain the maximum emission wavelength (λem,max) and Method for Determining Quantum Yield (ΦF) (30 μM acetonitrile) at the concentration, in the solvent, and with the counter ion indicated in Table 1. The compounds included hydrogen at each R group that is not otherwise specified.
(§2) Compounds 6, 7, 9, 11-14 and 21 were analyzed according to: the Method for Obtaining Ultraviolet-Visible Light Spectrum to obtain the maximum absorbance wavelength (λabs,max), the Method for Obtaining Fluorescence Emission Spectrum to obtain the maximum emission wavelength (λem,max), and the Method for Determining Quantum Yield (ΦF) in the solvent and with the counter ion indicated in Table 3.

[2] = Fluorescence emission spectrum (maximum emission wavelength)
Method: Method for Obtaining a Fluorescence Emission Spectrum
Fluorescence emission spectra are obtained and recorded on a QM-4-CW Spectrofluorometer using FeliX32 software (Photon Technology International, Inc., Birmingham, N.J.).
as §1, §2

[3] = Fluorescence quantum yield, integrating sphere
Method: Method for Determining Quantum Yield
Quantum yield is determined using an integrating sphere attached to a QM-4-CW Spectrofluorometer using FeliX32 software (Photon Technology International).
as §1, §2

[4] = pKa from fluorescence intensity versus pH; settings: non-linear regression of fluorescence intensity versus pH, buffered water pH 2.5 to 7.5
Method: Method for Determining pKa
A pKa value is determined by plotting fluorescence intensity (Imax) at emission maxima against pH and fitting the result to the non-linear expression in equation (1) (i.e., eq.(1)). In eq (1), a and b are the molar coefficient of the acid (HA) and base (A^−) form, respectively, and c is the combined overall concentration of the acid and base form. i.e., c=[HA]+[A^−].

[5] = Fluorescence response to trifluoroacetic acid / DBU in acetonitrile
Method: A 30 μM solution of Compound 6 in acetonitrile was prepared by adding 99 μL of a stock solution of 3.04 mM Compound 6 in methanol to 10 mL of acetonitrile. An initial fluorescence emission spectrum of the solution was obtained and is illustrated by curve (i) in FIG. 1A.
A series of approximately 13.8 μL aliquots of trifluoroacetic acid (TFA) were then added to the 30 μM solution of Compound 6 until a total concentration of 60.0 mM of TFA was present in the solution. (The total amount of TFA present in the solution corresponded to 2000 equivalents of acid per equivalent of Compound 6.) The fluorescence emission spectrum of the resulting solution was obtained and is illustrated by curve (ii) in FIG. 1A.
A base, i.e., 1,8-diazabicyclo[5.4.0]undec-7-ene (DBU), was then added to the solution to neutralize the acid until a concentration of 90 mM DBU was obtained. The fluorescence emission spectrum of the resulting solution was obtained and is illustrated by curve (iii) in FIG. 1A. The fluorescence emission intensity at λem,max=565 nm increased as the amount of base present in the system increased and the fluorescence emission intensity at λem,max=405 nm decreased as the amount of base present in the system increased, which reflected Compound 6's ratiometric response to the changing base concentration in acetonitrile.
A 30 μM solution of Compound 7 in acetonitrile was prepared by adding 84 μL of a stock solution of 3.58 mM Compound 7 in methanol to 10 mL of acetonitrile. The emission spectrum of the solution was then obtained and is illustrated by curve (i) in FIG. 1B.
A series of approximately 13.8 μL aliquots of TFA were then added to the 30 μM solution of Compound 7 until a total concentration of 60.0 mM TFA was present in the solution (which corresponded to 2000 equivalents of acid per equivalent of Compound 7). The fluorescence emission spectrum of the solution was obtained and is illustrated by curve (ii) in FIG. 1B.
After the 60 mM TFA concentration was achieved, DBU was gradually added to the solution until a total concentration of 90 mM DBU was present in the solution. The fluorescence spectrum of the solution was obtained and is illustrated by curve (iii) in FIG. 1B.
An aliquot of 50 μL of trifluoroacetic acid was then added to the system, and the fluorescence emission spectrum was obtained and is illustrated by the curved line with a peak at 360 nm in FIG. 6A.
Compound 10 was placed in neat acetonitrile and its emission spectrum was monitored as trifluoroacetic acid was added to the acetonitrile in incremental amounts to achieve a solution that included an acid concentration ranging from 0 to 0.2 M. After each acid addition the sample was excited with radiation of a wavelength 340 nm, and its fluorescence emission spectrum was monitored. The results are illustrated in FIG. 7A.
The solution of Compound 10 in acetonitrile was titrated with trifluoroacetic acid (TFA). […] The first stage, which occurred with the addition of the initial aliquots of TFA, was a slight increase intensity at 580 nm, as illustrated in FIG. 7A. As more TFA was added to the system, a second transition occurred in which the emission at 580 nm began to decrease and as the emission at 400 nm began to increase, as illustrated in FIG. 7B. A plot of the emission intensity at 580 nm versus pH and at 400 nm versus pH is illustrated in FIG. 7C.
Compounds 10, 11, and 12 were then each individually added, at a concentration of 30 μM, to acetonitrile and the emission spectrum of each was monitored. The compounds emitted at 600 nm with an intensity of about 7.57×10^5 arbitrary units (a.u.) in neat acetonitrile. […] FIG. 8B illustrates the emission properties of Compound 12.

[6] = Fluorescence response to pH in buffered water; settings: for fluorescence emission in water at pH 7.5: water pH 7.5
Method: Stock solutions of each compound (having a concentration of from 1-5 mM) were prepared by dissolving the corresponding salts of the compounds in methanol or 1V, N-dimethylformamide, and then diluting the same with acetonitrile or buffered water having a pH of from 2.5 to 7.5 derived from 0.2 M […] and 0.1 M citric acid, to achieve a sample solution having a compound concentration of 30.0 μM.
The emission spectrum for each sample was obtained. The results are illustrated by the plot in FIG. 2A.
The emission spectrum for each sample was obtained. […] The results are illustrated in the plot of FIG. 2B.
The fluorescence emission spectrum of Compound 8 in water having a pH of 2.5 was also obtained and is illustrated by the curved line with a peak at 360 nm in FIG. 5B.
Compounds 10, 11, and 12 were each individually added, at a concentration of 30 μM, to water having a pH=7.5 and the emission spectra of each were obtained. […] As the pH was decreased from 7.5 to 2.5 in 0.5 pH unit increments, fluorescence emission at 600 nm remained relatively nonexistent and the intensity of the fluorescence emission at 400 nm increased in correlation to the decrease in pH. FIG. 8A illustrates the emission properties of Compound 12.

[7] = Fluorescence response to hydrophobic environment (acetonitrile in water, SDS)
Method: Compound 12 was placed in water and the intensity of its fluorescence emission at 600 nm was monitored as the concentration of acetonitrile was increased from 0 volume to volume (v/v) % to 100 v/v % in increments of 10 v/v %.
Compound 12 was added to an aqueous solution of sodium dodecylsulfate (SDS) and monitored for fluorescence emission at 600 nm.

[8] = Fluorescence response to pH in buffered water; settings: 10 μM in water, pH = 7.5
[9] = 30 μM acetonitrile, 298 K, Table 1

λabs, max Abs ([1]; H2O pH = 2.5, 30 μM): 340 nm
λabs, max Abs ([1]; H2O pH = 7.5, 30 μM): 340 nm
λabs, max Abs ([1]; MeCN + 13.8 uL TFA, 30 μM): 340 nm
λabs, max Abs ([1]; MeCN, 30 μM): 340 nm
λem, max Em ([2]; H2O pH = 2.5, 30 μM): 450 nm
λem, max Em ([2]; MeCN + 13.8 uL TFA, 30 μM): 450 nm
ΦF (quantum yield) ([3]; 30 μM in acetonitrile with 60.0 mM TFA): 42%
quantum yield (ΦF) ([3]; 30 μM in acetonitrile, no acid, excited at 340 nm): 0.06%
[…]F (quantum yield) ([3]; H2O pH = 2.5, 30 μM): 42%
[…]F (quantum yield) ([3]; H2O pH = 7.5, 30 μM): 0%
[…]F (quantum yield) ([3]; MeCN + 13.8 uL TFA, 30 μM): 57%
[…]F (quantum yield) ([3]; MeCN, 30 μM): 0%
pKa [4]: 4.4
increase in cyan fluorescent intensity ([5]; 30 μM in acetonitrile after addition of 60.0 mM TFA): approximately 700 fold
λem,max (fluorescence emission) ([5]; 30 μM in acetonitrile in the presence of trifluoroacetic acid (60.0 mM TFA)): 450 nm
fluorescence emission in neat acetonitrile ([5]; acetonitrile without acid): essentially non-emissive
fluorescence intensity after base ([5]; acetonitrile, 60 mM TFA then 90 mM DBU): returned to zero
λem,max of the emission that increases as pH decreases ([6]; buffered water, 298 K, pH from 7.5 to 2.5): 450 nm
fluorescence emission in water at pH 7.5 [6]: essentially non-emissive
Compound: CCN(CC)c1ccc(-n2c[n+]3ccccc3c2-c2ccc(OC)cc2)cc1.[Cl-] [Compound 7, 2-(4-(diethylamino)phenyl)-1-(4-methoxyphenyl)-2H-imidazo[1,5-a]pyridin-4-ium chloride]

λabs, max Abs ([1]; H2O pH = 2.2, 30 μM): 340 nm
λabs, max Abs ([1]; H2O pH = 7.5, 30 μM): 340 nm
λabs, max Abs ([1]; MeCN + 50 μL TFA, 30 μM): 340 nm
λabs, max Abs ([1]; MeCN, 30 μM): 340 nm
λem, max Em ([2]; H2O pH = 2.2, 30 μM): 400 nm
λem, max Em ([2]; MeCN + 50 μL TFA, 30 μM): 400 nm
λem, max Em ([2]; MeCN, 30 μM): 600 nm
[…]F (quantum yield) ([3]; H2O pH = 2.2, 30 μM): 66%
[…]F (quantum yield) ([3]; H2O pH = 7.5, 30 μM): 0%
[…]F (quantum yield) ([3]; MeCN + 50 μL TFA, 30 μM): 57%
[…]F (quantum yield) ([3]; MeCN, 30 μM): 30%
emission intensity at 400 nm ([5]; 30 μM in acetonitrile + 50 μL trifluoroacetic acid): 1.34×10^6 a.u.
emission intensity at 600 nm ([5]; 30 μM in neat acetonitrile): about 7.57×10^5 arbitrary units (a.u.)
emission wavelength ([5]; 30 μM in neat acetonitrile): 600 nm
emission wavelength λem,max ([5]; acetonitrile + 50 μL trifluoroacetic acid): 400 nm
fluorescence emission in water at pH 7.5 [6]: essentially no fluorescence emission
fluorescence intensity at 600 nm ([7]; 100 v/v % acetonitrile): 6.48×10^5 a.u.
fluorescence intensity at 600 nm ([7]; water, 0 v/v % acetonitrile): 7.81×10^3 a.u.
Compound: CCN(CC)c1ccc(-n2cc3cccc(-c4cn(-c5ccc(C)cc5)nn4)[n+]3c2)cc1.[Cl-] [Compound 12, 2-(4-(diethylamino)phenyl)-5-(1-(p-tolyl)-1H-1,2,3-triazol-4-yl)-2H-imidazo[1,5-a]pyridin-4-ium chloride]

Compound: CCN(CC)c1ccc(-n2cc3cccc[n+]3c2)cc1 [Compound 2, 2-(4-(diethylamino)phenyl)-2H-imidazo[1,5-a]pyridin-4-ium hexafluorophosphate]
λabs, max Abs [1, 9]: 330 nm
λem, max Em [2, 9]: 515 nm
ΦF (quantum yield) [3, 9]: 30%
fluorescence λem ([6]; Example 13B: pH decreased to 2.5): 360-375 nm
emission maxima λem ([6]; Example 13B: printed 'neat acetonitrile having a pH of 7.5' / 'pH=7.5 in water'): 550 nm
fluorescence λem ([6]; water, pH 2.5): 360-375 nm
emission maxima λem [8]: 550 nm
